Source: patent publication US11767316B2, “Non-fused thiophene derivatives and their uses” (ENYO PHARMA, priority 2018, dated 2023)
pEC50, pIC50: −log10 of the molar value.

Assays:
LXFL 1121 = experiment: Cytotoxicity, propidium iodide based monolayer assay, LXFL 1121; conditions: 96 h; LXFL 1121 (lung large cell carcinoma), four days of treatment, T/C=50%; read-out: Absolute IC50
Description: (§1) The cytotoxicity was tested for compounds of the invention on five different cell-lines, namely LXFL 1121, MAXF 401, MMXF L-636, PRXF PC-3M and UXF 1138 which are respectively lung large cell carcinoma, breast adeno carcinoma, multiple myeloma, prostate adeno carcinoma and uterine sarcoma.
(§2) A working stock solution of the test compounds was prepared in DMSO at a concentration of 33 mM or 8.25 mM, and small aliquots were stored at −20° C. On each day of an experiment, a frozen aliquot of the working stock solution was thawed and stored at room temperature prior to and during treatment.
(§3) All liquid handling steps were performed using the Tecan Freedom EVO 200 platform. First, serial 2-fold dilutions of the 33 mM DMSO working stock solution were done in DMSO. […]
(§4) A modified propidium iodide (PI) based monolayer assay was used to assess the anti-cancer activity of the compounds. Briefly, cells were harvested from exponential phase cultures, counted and plated in 96 well flat-bottom microtiter plates at a cell density of 4,000 to 40,000 cells/well dependent on the cell line's growth rate. […] After an incubation period of 1-2 hours at room temperature, fluorescence (FU) was measured using the Enspire Multimode Plate Reader (excitation λ=530 nm, emission λ=620 nm) to quantify the amount of attached viable cells. […]

NFκB = NFκB reporter assay (NanoLuciferase) in A549 cells, TNFα stimulation; type: cell-based; conditions: Homo sapiens, 4 ng/ml TNFα, 6 hours
Text: Compounds of the present invention have been tested for their capacity to inhibit NFκB.
The NFκB reporter construct was made by cloning 5 NFκB responsive elements upstream of a NanoLuciferase reporter gene flanked by AAVS1 genomic sequences.
NFκB Responsive element fused with NanoLuciferase and SV40 late Poly(A) signal was amplified from pNL3.2-NFκB-Nluc (Promega) using NFKB-NLUC-F and NFKB-NLUC-R primers and inserted by Infusion (TaKaRa) in AAVS1 SA-2A-puro-pA donor plasmid (Hockemeyer et al, Nat Biotechnol. 2009, 27, 851-7) digested by Sal1. pCRISPR AAVS1-T2 expressing a guide RNA (gRNA) to target human AAVS1 (T2 target sequence) was constructed by inserting AAVS1-T2A hybridized primers in pLentiCRISPR v2-blast (Sanjana et al, Nat Methods. 2014, 11, 783-4) digested by Bsmb1.
A549 cells were transfected by the plasmids and puromycine selected for 5 days (1 μg mL-1). Then clones were obtained by limiting dilution and selected to maximize TNFα dependent NFkB-NanoLuciferase induction.
The reporter cells were seeded on a 96-well plate for overnight with DMEM including 10% FBS. Test compounds were added at varying concentrations. The cells then were treated with 4 ng/ml TNFα (Peprotech, ref E251) in DMEM+10% FBS. NanoGlo luciferase assay (Promega) was carried out 6 hours later. Luminescence was measured using a Spark 20M spectrofluorimeter (Tecan). Values were normalized to the luminescence measured in untreated cells.

[1] = tested on: H1N1 (influenza A/New Caledonia/20/99); experiment: Antiviral effect on A549 cells infected with H1N1 (MUNANA neuraminidase readout); type: cell-based; conditions: H1N1 A/New Caledonia/20/99 at MOI 0.1, 48 h post-infection, MUNANA fluorescence, read-out: IC50
Description: The antiviral effect of the compounds of the invention have been tested on A549 cell lines infected with H1N1 (influenza A/New Caledonia/20/99).
Human A549 cells (80,000 cells/well in a 96 well plate) were treated with a range of concentration of test compounds and immediately infected by H1N1 A/New Caledonia/20/99 virus (clinical isolate) at MOI of 0.1 in DMEM/1% Penicillin/streptomycin supplemented with 0.25 μg/ml TPCK trypsin (Sigma) and incubated at 37° C. in 5% CO2. 48 h post-infection, supernatants (25 μl) were collected and transferred into a 96-well black flat-bottom plate, mixed with 25 μl PBS with Ca++/Mg++(Thermo Fisher) and 50 μl of 2′-(4-Methylumbelliferyl)-α-D-N-acetylneuraminic acid sodium salt hydrate stock-solution (20 μM, MUNANA, Sigma). Plates were incubated 1 h at 37° C. and reaction is stopped by adding 100 μl of Stop Solution (glycine 0.1 M pH10.7/25% ethanol). The amount of fluorescent product released by MUNANA hydrolysis (4-MU) was measured in a Tecan spectrophotometer with excitation and emission wavelengths of 365 and 450 nm respectively.

UXF 1138 = experiment: Cytotoxicity, propidium iodide based monolayer assay, UXF 1138; type: cell-based; conditions: 96 h; UXF 1138 (uterine sarcoma), four days of treatment, T/C=50%; read-out: Absolute IC50
Description: as §1, §2, §3, §4

Q: How did the pIC50 (LXFL 1121) turn out when `O=C(Nc1scc(C2CCc3ccccc3C2)c1C(=O)O)c1ccccc1` (stereo not shown) [#16] was run?
A: 6.06

Q: And the pEC50 (NFκB)?
A: 7.10

Q: And the pIC50 [1]?
A: 7.95

Q: What about the pIC50 (UXF 1138) of the same compound?
A: 6.49
